Source: US8227240B2, “Systems for screening pharmaceutical chemicals” (The Washington University, priority 2001, dated 2012)

Test system: reconstituted tissue membrane (fibroblast non-muscle myosin / actin cytoskeleton)
Assay: Tissue indentation method in 96-well plate: peak force of reconstituted tissue membrane
Format: cell-based
Description: A triangular frame made of stainless steel wire 1 mm in diameter was employed as a scaffold on which the reconstituted tissue formed. The wells are slightly tapered toward the bottom and the frame is securely positioned 1 mm above the bottom of the well (FIG. 11a). The non-polymerized solution of collagen containing cells and appropriate cell culture media as described above was poured into the wells filling the wells to a level 3 mm above the bottom (FIG. 11b). The 96-well plate was incubated at 37° C. with 5% CO2. During the incubation, cells compressed collagen matrices by squeezing liquid out from the porous collagen matrix. Without the wire frame, the reconstituted tissue contracted into a small sphere floating in the tissue culture medium. It was discovered that by utilizing different shapes of wire frames the collagen matrix was compressed into shapes corresponding to shapes of the frames. Other wire frame shapes, such as one shown in FIG. 11b, produced tissue strips with different widths. A porous support material such as a Velcro fastener was not required to facilitate tissue adhesion even to the non-porous stainless steel surfaces of a wire. The collagen was compressed to a greater extent at the outer portion of the membrane or strip. Therefore, this outer portion of the membrane can withstand stress produced by the cells and prevented it from ripping the membrane off the wire frame.
To assess the response of the tissue model samples to test agents, the resistance of the tissue samples to stretch is measured by a probe coupled to a force transducer. The stiffness of the tissue is related to the force required to move the probe by a specified amount once the probe contacts the tissue. […]
The stage is raised until the probe tip touches the membrane or strip of reconstituted tissue. Contact of the tip with the sample is detected by a sudden increase in the force registered by the isometric force transducer. […] During this trajectory the tip comes in contact with the tissue specimen and stretches it as the force is continually recorded by a data recorder. […]

C=C1[C@@H](C)[C@H]2[C@H](Cc3ccccc3)NC(=O)[C@]23[C@H](OC(C)=O)/C=C/[C@@](C)(O)C(=O)[C@@H](C)C/C=C/[C@H]3[C@@H]1O [CD, cytochalasin D]
decrease of peak force from its initial level (40 nM CD, nearly 15 min after addition, after 20% FBS): about 40% | peak force (2 μM CD, 20 min after addition): further reduction | reduction of the height of the force peaks (96-well plate, after 10% FBS): 60%
